Results on five compounds are retold here after paper PMC8512562, “Semisynthetic Derivatives of Selected Amaryllidaceae Alkaloids as a New Class of Antimycobacterial Agents” (Molecules, 2021).

In assay [1] the test system is Mycobacterium tuberculosis H37Ra. The assay is described as follows: Antimycobacterial screening (microdilution broth, resazurin) against M. tuberculosis H37Ra. The format is cell-based. Conditions: Mycobacterium tuberculosis. On the technique in general: Broth dilution looks for growth in wells or tubes with falling amounts of substance.
The test system of assay [2] is Mycobacterium smegmatis DSM 43465 (ATCC 607). The assay can be described thus: Antimycobacterial screening (microdilution broth, resazurin) against M. smegmatis. Type of assay: cell-based. Conditions: Mycolicibacterium smegmatis, 48 h, read-out: MIC M. smegmatis.
The next assay deals with HepG2 cells. The assay is described as follows: cells. Conditions: for IC50: Homo sapiens, HepG2, MTT, 24 h incubation. Type of assay: cell-based, Human.
Assay [3] concerns Mycobacterium aurum DSM 43999 (ATCC 23366). The assay can be described thus: Antimycobacterial screening (microdilution broth, resazurin) against M. aurum. The format is cell-based. Conditions: Mycolicibacterium aurum, 72 h, read-out: MIC M. aurum.
The test system of assay [4] is M. tuberculosis H37Ra, M. aurum and M. smegmatis. The assay can be described thus: Antimycobacterial screening, MICs stated over all studied strains. Type of assay: cell-based, Mycobacterium. Conditions: range over M. tuberculosis H37Ra, M. aurum, M. smegmatis; read-out: MICs against all studied strains.
[5] abbreviates: H37RA, read-out: MIC Mtb H37Ra (µM).
Where [6] appears, read: M. tuberculosis H37Ra, resazurin added after 120 h, read-out: MIC Mtb H37Ra.

≈ marks a conversion by molar mass, not a printed value. Where two headings read alike, the source gives them in different places.

As a reminder, the IC50 is the concentration that inhibits the measured activity by half. Low values mean inhibition by little substance, high ones a need for much substance. As to `COc1cc2c(cc1OC)[C@@]13C=C[C@@H](OC(=O)c4cc(C)cc(C)c4)C[C@@H]1N(CC3)C2` [5a, 3-O-(3,5-dimethylbenzoyl)maritidine], the MIC in assay [1] (setting [5]) is 8.6 µM; in assay [1] (setting [6]), 3.91 µg/mL; in assay [2] it was 15.6 µg/mL (≈ 37.2 µM); in assay [3], 15.6 µg/mL (≈ 37.2 µM); in assay [4], 3.91 to 15.6 µg/mL (≈ 9.32 to 37.2 µM). Further, the “SI (selectivity index)” value with HepG2 cells is 2.17. Also, it took 18.7 ± 2.7 µM to reach half-maximal inhibition in the assay with HepG2 cells (IC50).
`O=C(O[C@@H]1C=C[C@]23CCN(Cc4cc5c(cc42)OCO5)[C@H]3C1)c1cccc2ccccc12` [4a, 3-O-(1-naphthoyl)vittatine]: the MIC in assay [1] (setting [5]) is 8.5 µM; in assay [1] (setting [6]) it was 3.91 µg/mL; in assay [2], 7.81 µg/mL (≈ 18.4 µM); in assay [3], 3.91 µg/mL (≈ 9.19 µM); in assay [4], 3.91 to 7.81 µg/mL (≈ 9.19 to 18.4 µM). Moreover, in the assay on HepG2 cells, the “SI (selectivity index)” value is on record as 2.79. This compound displayed an IC50 in the assay with HepG2 cells of 23.7 ± 2.2 µM.
With `CCCCc1ccc(C(=O)O[C@H]2C=C[C@@]34CCN(C)Cc5ccc(OC)c(c53)O[C@H]4C2)cc1` [1i, 6-O-(4-butylbenzoyl)galanthamine], the MIC in assay [1] (setting [5]) was 3.5 µM; in assay [1] (setting [6]) it was 1.56 µg/mL; in assay [2], 7.81 µg/mL (≈ 17.4 µM); in assay [3], 1.98 µg/mL (≈ 4.42 µM); in assay [4] it was 1.56 to 7.81 µg/mL (≈ 3.49 to 17.4 µM). In addition, the “SI (selectivity index)” value in the assay on HepG2 cells is reported as 4.20. The compound also yielded an IC50 in the assay on HepG2 cells of 14.7 ± 1.6 µM.
`COc1ccc2c3c1O[C@H]1C[C@@H](OC(=O)c4cccc5ccccc45)C=C[C@@]31CCN(C)C2` [1q, 6-O-(1-naphthoyl)galanthamine]: the MIC in assay [1] (setting [5]) is 13.1 µM; in assay [1] (setting [6]), 6.25 µg/mL; in assay [2], 7.81 µg/mL (≈ 17.7 µM); in assay [3], 7.81 µg/mL (≈ 17.7 µM); in assay [4], 6.25 to 7.81 µg/mL (≈ 14.2 to 17.7 µM). For the same compound, in the assay with HepG2 cells, the “SI (selectivity index)” value was found to be 3.21. In the assay on HepG2 cells, this compound gave a concentration for half-maximal inhibition (IC50) of 42.1 ± 4.1 µM.
For the compound `O=C(O[C@@H]1C=C[C@]23CCN(Cc4cc5c(cc42)OCO5)[C@H]3C1)c1ccc2ccccc2c1` [4b, 3-O-(2-naphthoyl)vittatine], the MIC in assay [1] (setting [5]) was 8.5 µM; in assay [1] (setting [6]), 3.91 µg/mL; in assay [2], 7.81 µg/mL (≈ 18.4 µM); in assay [3], 3.91 µg/mL (≈ 9.19 µM); in assay [4] it was 3.91 to 7.81 µg/mL (≈ 9.19 to 18.4 µM). In addition, the “SI (selectivity index)” value in the assay on HepG2 cells amounted to 2.17. Besides, in the assay with HepG2 cells, 18.5 ± 2 µM corresponded to half-maximal inhibition (IC50).
